The target of test [1] is T1, Proline racemase (Clostridium sticklandii, UniProt Q9L4Q3).
T1 sequence (Q9L4Q3 whole entry): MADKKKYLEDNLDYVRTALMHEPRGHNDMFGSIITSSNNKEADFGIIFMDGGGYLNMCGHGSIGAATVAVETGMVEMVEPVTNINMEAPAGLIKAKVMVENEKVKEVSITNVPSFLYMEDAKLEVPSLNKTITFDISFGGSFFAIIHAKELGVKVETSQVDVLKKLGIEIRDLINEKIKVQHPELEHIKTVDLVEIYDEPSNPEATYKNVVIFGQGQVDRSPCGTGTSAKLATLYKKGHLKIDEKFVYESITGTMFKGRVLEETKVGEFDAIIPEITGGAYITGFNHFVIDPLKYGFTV
Kind of test: Noncompetitive inhibition of N-terminal 6xHis-tagged Clostridium sticklandii ATCC 12662 proline racemase expressed in Escherichia coli BL21(DE3) using L/D-proline as substrate preincubated for 5 mins by Cornish-Bowden plot analysis. The arrangement: species or system Acetoanaerobium sticklandii.

Test [2] addresses T1, Proline racemase. As to the kind of experiment: Inhibition of N-terminal 6xHis-tagged Clostridium sticklandii ATCC 12662 proline racemase expressed in Escherichia coli BL21(DE3) using L/D-proline as substrate preincubated for 5 mins by circular dichroism-based analysis. The arrangement: species or system Acetoanaerobium sticklandii. Background: Circular dichroism is the unequal absorption of left and right circularly polarised light.

The target of test [3] is T2, Proline racemase (Clostridium sticklandii) (UniProt Q9L4Q3).
T2 sequence (whole entry): T1 sequence (Q9L4Q3 whole entry)
Kind of test: Inhibition of Clostridium sticklandii ATCC 12662 proline racemase L-proline as substrate at 57 mM relative to control. Particulars: Acetoanaerobium sticklandii.

For test [4], the target named is T2, Proline racemase (Clostridium sticklandii). Kind of test: Inhibition of Clostridium sticklandii ATCC 12662 proline racemase using L-proline as substrate at 0.36 mM relative to control. The settings on record: Acetoanaerobium sticklandii.
In test [5] the target is T1, Proline racemase. As to the kind of experiment: Competitive inhibition of N-terminal 6xHis-tagged Clostridium sticklandii ATCC 12662 proline racemase expressed in Escherichia coli BL21(DE3) using L/D-proline as substrate. The arrangement: species or system Acetoanaerobium sticklandii.
Test [6] has as its target T3, Serine racemase (Schizosaccharomyces pombe (strain 972 / ATCC 24843) (Fission yeast), UniProt O59791).
T3 sequence (O59791 whole entry): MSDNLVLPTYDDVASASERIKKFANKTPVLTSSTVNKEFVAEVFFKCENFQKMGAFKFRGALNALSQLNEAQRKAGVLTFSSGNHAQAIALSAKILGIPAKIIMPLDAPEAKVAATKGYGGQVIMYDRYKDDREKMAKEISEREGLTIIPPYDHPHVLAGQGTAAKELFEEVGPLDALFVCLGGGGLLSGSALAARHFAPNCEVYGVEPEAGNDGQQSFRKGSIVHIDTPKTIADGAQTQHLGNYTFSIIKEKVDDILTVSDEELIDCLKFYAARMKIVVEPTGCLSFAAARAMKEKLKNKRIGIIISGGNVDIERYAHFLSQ
As to the kind of experiment: Mixed type inhibition of N-terminal 6xHis-tagged recombinant Schizosaccharomyces pombe 972 serine racemase expressed in Escherichia coli BL21(DE3) using L-serine as substrate assessed as enzyme-substrate-inhibitor complex preincubated for 2 mins followed by substrate addition by double reciprocal plot analysis.

For test [7], the target named is T3, Serine racemase. Kind of test: Mixed type inhibition of N-terminal 6xHis-tagged recombinant Schizosaccharomyces pombe 972 serine racemase expressed in Escherichia coli BL21(DE3) using L-serine as substrate assessed as enzyme-inhibitor complex preincubated for 2 mins followed by substrate addition by double reciprocal plot analysis.
For test [8], the target named is T2, Proline racemase (Clostridium sticklandii). Kind of test: Inhibition of N-terminal 6xHis-tagged Clostridium sticklandii ATCC 12662 proline racemase expressed in Escherichia coli BL21(DE3) using L/D-proline as substrate at 142.5 mM preincubated for 5 mins by circular dichroism-based analysis. Particulars: Acetoanaerobium sticklandii.

In general, Ki refers to the dissociation constant of the complex between target and ligand, obtained from inhibition or displacement. The IC50 is the point on the concentration scale where inhibition reaches its midpoint. As a reminder, the inhibition is the share of the control response that was lost under treatment.

`O=C(O)C12CCCN1CCC2` displayed a Ki on Proline racemase [1] of 111 mM. On Proline racemase [2], half-maximal inhibition (IC50) required 67 mM.
As to `O=Cc1ccc[nH]1`, the inhibition in test [3] turned out to be 98%; in test [4] it was 50%. On Proline racemase [5], this molecule displayed an inhibition constant (Ki) of 0.0058 mM.
Consider `NC(CO)(CO)C(=O)O`, for which the inhibition constant (Ki) at Serine racemase [6] is 661 mM; on Serine racemase [7] it was 167 mM.
For `O=C(O)C12CCC(CC1)N2`, the inhibition in test [8] was determined as 29%.
